Measurements from patent publication US20230391772A1, “METHODS AND COMPOSITIONS FOR TARGETED PROTEIN DEGRADATION” (Ranok Therapeutics (Hangzhou) Co. Ltd., priority 2020, published 2023).

Key:
[1] = biological target: T1, HSP90a protein (Homo sapiens, UniProt P07900); assay: HSP90α-binding fluorescent polarization (FP) assay, BODIPY-labeled RNK04010 probe; details: FP competition with RNK04010 (BODIPY-labeled), 5 nM, 300 min at 25° C.
T1 construct: purchased BPS Bioscience 50298
Outline: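 Binding was scored by fluorescence polarization after adding N-terminal HSP90a to wells holding probe and compound, with compound tested from 20 μM to 5.2 nM. Probe-dependent times at 25° C were 120 min for FITC-geldanamycin and 300 min for RNK04010-BODIPY, both at 5 nM final.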

[2] = biological target: KRAS(G12C) (Homo sapiens, UniProt P01116, G12C); assay: KRAS(G12C)/SOS1 homogeneous time-resolved fluorescence (HTRF) assay; design: purchased Cisbio 63ADK000CB16PEG; details: absence of GTP, 4° C. for 3 hr, read-out: KRAS (G12C) binding
Outline: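 Three-hour incubation at 4 °C of 3-fold compound dilutions (lowest 1.02 nM) with KRAS(G12C), SOS1 and detection reagents, GTP absent. Disruption of the KRAS(G12C)/SOS1 complex detected by time-resolved fluorescence.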

[3] = tested on: MIA PaCa-2 human pancreatic carcinoma; assay: MIA PaCa-2 CCK-8 proliferation assay; format: cell-based; details: Homo sapiens, MIA PaCa-2, 72 h, MIA PaCa-2 cells
Outline: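 CCK-8 absorbance readout; % inhibition = 100 − (compound − blank)/(DMSO − blank) × 100, blank = medium + DMSO, no cells. Dose range 20 μM down to 1.02 nM, 3-fold steps. KRAS(G12C) copy number: MIA PaCa-2 2; NCI-H358 1; NCI-H23 1.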

Chain of KRAS(G12C) (P01116 1-188 isoform P01116-2 G12C): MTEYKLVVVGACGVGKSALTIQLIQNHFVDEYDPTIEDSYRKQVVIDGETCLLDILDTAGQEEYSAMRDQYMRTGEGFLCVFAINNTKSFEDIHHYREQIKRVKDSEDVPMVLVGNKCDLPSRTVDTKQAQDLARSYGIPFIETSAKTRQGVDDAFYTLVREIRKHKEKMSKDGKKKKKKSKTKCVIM

Row | Structure (SMILES) | IC50 [1] [nM] | IC50 [2] [nM] | EC50 [3] [nM]
1 | C=CC(=O)N1CCN(c2nc(OC[C@@H]3C[C@H](NC(=O)C4CCN(Cc5ccc(-n6c(O)nnc6-c6cc(C(C)C)c(O)cc6O)cc5)CC4)CN3C)nc3c2CCN(c2cccc4cccc(Cl)c24)C3)C[C@@H]1CC#N [Compound 214, N-((3S,5S)-5-(((4-((S)-4-acryloyl-3-(cyanomethyl)piperazin-1-yl)-7-(8-chloronaphthalen-1-yl)-5,6,7,8-tetrahydropyrido[3,4-d]pyrimidin-2-yl)oxy)methyl)-1-methylpyrrolidin-3-yl)-1-(4-(3-(2,4-dihydroxy-5-isopropylphenyl)-5-hydroxy-4H-1,2,4-triazol-4-yl)benzyl)piperidine-4-carboxamide] | < 100 | < 100 | 100 to 1000
2 | C=CC(=O)N1CCN(c2nc(OCCN3CCC(C(=O)N4CCC(Cc5ccc(-n6c(C(=O)NCC(F)(F)F)nnc6-c6cc(C(C)C)c(O)cc6O)cc5)CC4)CC3)nc3c2CCN(c2cccc4cccc(Cl)c24)C3)C[C@@H]1CC#N [Compound 212, (S)-4-(4-((1-(1-(2-((4-(4-acryloyl-3-(cyanomethyl)piperazin-1-yl)-7-(8-chloronaphthalen-1-yl)-5,6,7,8-tetrahydropyrido[3,4-d]pyrimidin-2-yl)oxy)ethyl)piperidine-4-carbonyl)piperidin-4-yl)methyl)phenyl)-5-(2,4-dihydroxy-5-isopropylphenyl)-N-(2,2,2-trifluoroethyl)-4H-1,2,4-triazole-3-carboxamide] | < 100 | 100 to 1000 | 100 to 1000
3 | C=CC(=O)N1CCN(c2nc(OC[C@@H]3CN(C(=O)C4CCN(Cc5ccc(-n6c(O)nnc6-c6cc(C(C)C)c(O)cc6O)cc5)CC4)CCN3C)nc3c2CCN(c2cccc4cccc(Cl)c24)C3)C[C@@H]1CC#N [Compound 202, 2-((S)-1-acryloyl-4-(7-(8-chloronaphthalen-1-yl)-2-(((S)-4-(1-(4-(3-(2,4-dihydroxy-5-isopropylphenyl)-5-hydroxy-4H-1,2,4-triazol-4-yl)benzyl)piperidine-4-carbonyl)-1-methylpiperazin-2-yl)methoxy)-5,6,7,8-tetrahydropyrido[3,4-d]pyrimidin-4-yl)piperazin-2-yl)acetonitrile, trifluoroacetic acid] | < 100 | 100 to 1000 | > 1000
4 | C=CC(=O)N1CCN(c2nc(OC[C@@H]3C[C@@H](NC(=O)C4CCN(Cc5ccc(-n6c(C(N)=O)nnc6-c6cc(C(C)C)c(O)cc6O)cc5)CC4)CN3C)nc3c2CCN(c2cccc4cccc(Cl)c24)C3)C[C@@H]1CC#N [Compound 194, N-((3R,5S)-5-(((4-((S)-4-acryloyl-3-(cyanomethyl)piperazin-1-yl)-7-(8-chloronaphthalen-1-yl)-5,6,7,8-tetrahydropyrido[3,4-d]pyrimidin-2-yl)oxy)methyl)-1-methylpyrrolidin-3-yl)-1-(4-(3-carbamoyl-5-(2,4-dihydroxy-5-isopropylphenyl)-4H-1,2,4-triazol-4-yl)benzyl)piperidine-4-carboxamide] | < 100 | 100 to 1000 | 100 to 1000
5 | C=CC(=O)N1CCN(c2nc(OCCN3CCN(Cc4cc(C(C)C)c(O)cc4O)CC3)nc3c2CCN(c2cccc4cccc(Cl)c24)C3)C[C@@H]1CC#N [Compound 216, (S)-2-(1-acryloyl-4-(7-(8-chloronaphthalen-1-yl)-2-(2-(4-(2,4-dihydroxy-5-isopropylbenzyl)piperazin-1-yl)ethoxy)-5,6,7,8-tetrahydropyrido[3,4-d]pyrimidin-4-yl)piperazin-2-yl)acetonitrile] | 100 to 1000 | < 100 | 100 to 1000
6 | C=CC(=O)N1CCN(c2nc(OC[C@@H]3C[C@@H](NC(=O)C4CCN(Cc5ccc(-n6c(C(=O)NCCN7CCN(C)CC7)nnc6-c6cc(C(C)C)c(O)cc6O)cc5)CC4)CN3C)nc3c2CCN(c2cccc4cccc(Cl)c24)C3)C[C@@H]1CC#N [Compound 201, N-((3R,5S)-5-(((4-((S)-4-acryloyl-3-(cyanomethyl)piperazin-1-yl)-7-(8-chloronaphthalen-1-yl)-5,6,7,8-tetrahydropyrido[3,4-d]pyrimidin-2-yl)oxy)methyl)-1-methylpyrrolidin-3-yl)-1-(4-(3-(2,4-dihydroxy-5-isopropylphenyl)-5-((2-(4-methylpiperazin-1-yl)ethyl)carbamoyl)-4H-1,2,4-triazol-4-yl)benzyl)piperidine-4-carboxamide] | < 100 | 100 to 1000 | > 1000

Continued, values first:

Row | IC50 [1] [nM] | IC50 [2] [nM] | EC50 [3] [nM] | Structure (SMILES)
7 | < 100 | 100 to 1000 | 100 to 1000 | C=CC(=O)N1CCN(c2nc(OC[C@@H]3C[C@H](C(=O)N4CCN(Cc5ccc(-n6c(C(=O)NCC(F)(F)C(F)(F)F)nnc6-c6cc(C(C)C)c(O)cc6O)cc5)CC4)CN3C)nc3c2CCN(c2cccc4cccc(Cl)c24)C3)C[C@@H]1CC#N [Compound 339, 4-[4-({4-[(3S,5S)-5-({[7-(8-chloronaphthalen-1-yl)-4-[(3S)-3-(cyanomethyl)-4-(pr-op-2-enoyl)piperazin-1-yl]-5H,6H,8H-pyrido[3,4-d]pyrimidin-2-yl]oxy}methyl)-1-methylpyrrolidine-3-carbonyl]piperazin-1-yl}methyl)phenyl]-5-(2,4-dihydroxy-5-isopropylphenyl)-N-(2,2,3,3,3-pentafluoropropyl)-1,2,4-triazole-3-carboxamide]
8 | < 100 | 100 to 1000 | 100 to 1000 | C=CC(=O)N1CCN(c2nc(OC[C@@H]3C[C@@H](OCC(=O)NCc4ccc(-n5c(O)nnc5-c5cc(C(C)C)c(O)cc5O)cc4)CN3C)nc3c2CCN(c2cccc4cccc(Cl)c24)C3)C[C@@H]1CC#N [Compound 302, 2-(((3R,5S)-5-(((4-((S)-4-acryloyl-3-(cyanomethyl)piperazin-1-yl)-7-(8-chloronaphthalen-1-yl)-5,6,7,8-tetrahydropyrido[3,4-d]pyrimidin-2-yl)oxy)methyl)-1-methylpyrrolidin-3-yl)oxy)-N-(4-(3-(2,4-dihydroxy-5-isopropylphenyl)-5-hydroxy-4H-1,2,4-triazol-4-yl)benzyl)acetamide]
9 | < 100 | < 100 | > 1000 | C=CC(=O)N1CCN(c2nc(OC[C@@H]3C[C@H](NC(=O)C4CCN(C(=O)c5ccc(-n6c(O)nnc6-c6cc(C(C)C)c(O)cc6O)cc5)CC4)CN3C)nc3c2CCN(c2cccc4cccc(Cl)c24)C3)C[C@@H]1CC#N [Compound 315, N-[(3S,5S)-5-({[7-(8-chloronaphthalen-1-yl)-4-[(3S)-3-(cyanomethyl)-4-(prop-2-enoyl)piperazin-1-yl]-5H,6H,8H-pyrido[3,4-d]pyrimidin-2-yl]oxy}methyl)-1-methylpyrrolidin-3-yl]-1-{4-[3-(2,4-dihydroxy-5-isopropylphenyl)-5-hydroxy-1,2,4-triazol-4-yl]benzoyl}piperidine-4-carboxamide]
10 | < 100 | 100 to 1000 | < 100 | C=CC(=O)N1CCN(c2nc(OC[C@@H]3C[C@H](C(=O)N4CCN(Cc5ccc(-n6c(C(=O)NCC(F)(F)F)nnc6-c6cc(C(C)C)c(O)cc6O)cc5)CC4)CN3C)nc3c2CCN(c2cccc4cccc(Cl)c24)C3)C[C@@H]1CC#N [Compound 333, 4-[4-({4-[(3S,5S)-5-({[7-(8-chloronaphthalen-1-yl)-4-[(3S)-3-(cyanomethyl)-4-(prop-2-enoyl)piperazin-1-yl]-5H,6H,8H-pyrido[3,4-d]pyrimidin-2-yl]oxy}methyl)-1-methylpyrrolidine-3-carbonyl]piperazin-1-yl}methyl)phenyl]-5-(2,4-dihydroxy-5-isopropylphenyl)-N-(2,2,2-trifluoroethyl)-1,2,4-triazole-3-carboxamide]
11 | < 100 | > 1000 | 100 to 1000 | C=CC(=O)N1CCN(c2nc(OCC3CCC(CN4CCC(Cc5ccc(-n6c(C(=O)NCC(F)(F)F)nnc6-c6cc(C(C)C)c(O)cc6O)cc5)CC4)N3)nc3c2CCN(c2cccc4cccc(Cl)c24)C3)C[C@@H]1CC#N (stereo partly drawn) [Compound 298, 4-(4-((1-((5-(((4-((S)-4-acryloyl-3-(cyanomethyl)piperazin-1-yl)-7-(8-chloronaphthalen-1-yl)-5,6,7,8-tetrahydropyrido[3,4-d]pyrimidin-2-yl)oxy)methyl)pyrrolidin-2-yl)methyl)piperidin-4-yl)methyl)phenyl)-5-(2,4-dihydroxy-5-isopropylphenyl)-N-(2,2,2-trifluoroethyl)-4H-1,2,4-triazole-3-carboxamide]
12 | < 100 | 100 to 1000 | > 1000 | C=CC(=O)N1CCN(c2nc(OC[C@@H]3C[C@@H](OC(=O)NCc4ccc(-n5c(O)nnc5-c5cc(CC)c(O)cc5O)cc4)CN3C)nc3c2CCN(c2cccc4cccc(Cl)c24)C3)C[C@@H]1CC#N [Compound 295, (3R,5S)-5-(((4-((S)-4-acryloyl-3-(cyanomethyl)piperazin-1-yl)-7-(8-chloronaphthalen-1-yl)-5,6,7,8-tetrahydropyrido[3,4-d]pyrimidin-2-yl)oxy)methyl)-1-methylpyrrolidin-3-yl 4-(3-(5-ethyl-2,4-dihydroxyphenyl)-5-hydroxy-4H-1,2,4-triazol-4-yl)benzylcarbamate]
